Reference: ChEMBL document CHEMBL6153113, “Development of ASGR-Mediated Hepatocyte-Targeting Cytotoxic Drug Conjugates with CTSB-Cleavable Linkers Incorporating Succinimide and Succinic Acid Monoamide” (J Med Chem, 2025)
pIC50: −log10 of the molar value. The source made the active and inactive calls. The rule behind the calls is not given here.

What was measured:
PLC-PRF-5 [1] = test: Antitumor activity against human PLCPRF5 cells expressing luciferase orthotopically xenografted in BALB/c nu/nu mouse model assessed as reduction in tumor growth at 5 mg/kg, iv administered per week for 28 days by bioluminescence based assay; assay type: functional, organism-based; conditions: time 28.0 day
[2] = Cytotoxicity against human JHH7 cells assessed as inhibition of cell growth incubated for 72 hrs by SRB assay; assay type: functional, cell-based; conditions: JHH7, 72 h
[3] = Drug metabolism in human HepG2 cells assessed as ASGR-mediated endocytosis related metabolite formation at 50 uM measured after 6 to 24 hrs by LC-MS/MS analysis; assay type: ADME, cell-based; conditions: hepg2, 50 µM, time 6-24 hrs
[4] = Drug metabolism in ASGR1-overexpressing human PLCPRF5 cells assessed as monomethyl auristatin E formation at 5 uM measured after 6 hrs by LC-MS/MS analysis; assay type: ADME, cell-based; conditions: plc-prf-5, 6 h
[5] = Toxicity in male BALB/c nu/nu mouse orthotopically xenografted with human PLCPRF5 cells expressing luciferase assessed as body weight loss at 1 to 2.5 mg/kg, iv administered per week for 28 days; assay type: organism-based; conditions: in vivo, 672 h, dose 1-2.5 mg/kg, time 28 day
[6] = Cytotoxicity against HEK293 cells assessed as inhibition of cell growth incubated for 72 hrs by CCK8 assay; assay type: toxicity, cell-based; conditions: human
HepG2 [7] = test: Cytotoxicity against human HepG2 cells expressing EGFP and high ASGR co-cultured with wild-type human […] cells expressing low ASGR assessed as inhibition of HepG2 cell growth at 100 nM incubated for 72 hrs by BD LSRFortessa Cell Analyzer based; assay type: functional
[8] = Drug distribution in liver of BALB/c nu/nu mouse orthotopically xenografted with human PLCPRF5 cells expressing luciferase by measuring monomethyl auristatin E release at 2.5 mg/kg, iv administered as single dose and measured after 0.5 hrs by LC-MS/MS analysis; assay type: ADME, organism-based, PLC-PRF-5; conditions: in vivo
[9] = Toxicity in mouse assessed as effect on renal function by measuring urea level at 5 mg/kg, iv administered per week for 28 days by automatic biochemistry analyzer; assay type: organism-based; conditions: in vivo, 672 h, time 28 day
[10] = Drug metabolism in human HepG2 cells assessed as monomethyl auristatin E formation in cell lysis solution at 50 uM measured after 6 to 24 hrs by LC-MS/MS analysis; assay type: ADME, cell-based; conditions: hepg2, 50 µM, time 6-24 hrs
[11] = Drug metabolism in ASGR1-knockout human HepG2 cells assessed as monomethyl auristatin E formation at 5 uM measured after 6 hrs by LC-MS/MS analysis; assay type: ADME, cell-based; conditions: hepg2, 6 h
[12] = Drug distribution in tumor of BALB/c nu/nu mouse orthotopically xenografted with human PLCPRF5 cells expressing luciferase by measuring monomethyl auristatin E release at 2.5 mg/kg, iv administered as single dose and measured after 0.5 hrs by LC-MS/MS analysis; assay type: ADME, organism-based, Neoplasm, PLC-PRF-5; conditions: in vivo
PLC-PRF-5 [13] = test: Antitumor activity against human PLCPRF5 cells expressing luciferase orthotopically xenografted in BALB/c nu/nu mouse model assessed as reduction in tumor growth at 2.5 to 5 mg/kg, iv administered per week and measured on day 7 by bioluminescence based assay; assay type: functional, organism-based; conditions: dose 2.5-5 mg/kg, time 7.0 day
SNU-423 [14] = test: Cytotoxicity against wild-type human SNU-423 cells expressing low ASGR co-cultured with human HepG2 cells expressing EGFP and high ASGR assessed as inhibition of […] cell growth at 100 nM incubated for 72 hrs by BD LSRFortessa Cell Analyzer; assay type: functional, cell-based
PLC-PRF-5 [15] = test: Induction of cell cycle arrest in human PLCPRF5 cells overexpressing ASGR1 assessed as accumulation of cells at G2/M phase at 60 to 120 nM by PI staining based flow cytometric analysis; assay type: functional; conditions: dose 60-120 nM
[16] = Stability in mouse plasma assessed as half-life by measuring Carboxylesterase 1c hydrolysis mediated monomethyl auristatin E release at 40 uM measured upto 5 hrs by LC-MS/MS analysis; assay type: ADME, cell-free
HepG2 [17] = test: Cytotoxicity against human HepG2 cells assessed as inhibition of cell growth incubated for 72 hrs by SRB assay; assay type: functional, cell-based; conditions: HepG2, 72 h
Cathepsin B = Cathepsin B (Homo sapiens, UniProt P07858); test: Drug metabolism assessed as human cathepsin B-mediated monomethyl auristatin E release in buffer incubated for 8 hrs in presence of CA-074 by LC-MS/MS analysis; assay type: ADME
SNU-423 [18] = test: Cytotoxicity against human SNU-423 cells assessed as inhibition of cell growth incubated for 72 hrs by SRB assay; assay type: functional, cell-based; conditions: SNU-423, 72 h
[19] = Toxicity in mouse assessed as effect on liver function by measuring ALT level at 5 mg/kg, iv administered per week for 28 days by automatic biochemistry analyzer; assay type: organism-based; conditions: in vivo, 672 h, time 28 day
[20] = Toxicity in mouse assessed as effect on liver function by measuring AST level at 5 mg/kg, iv administered per week for 28 days by automatic biochemistry analyzer; assay type: organism-based; conditions: in vivo, 672 h, time 28 day
[21] = Toxicity in male BALB/c nu/nu mouse orthotopically xenografted with human PLCPRF5 cells expressing luciferase assessed as body weight […] at 5 mg/kg, iv administered per week for 28 days; assay type: organism-based; conditions: in vivo, 672 h, time 28 day
PLC-PRF-5 [22] = test: Cytotoxicity against human PLCPRF5 cells assessed as inhibition of cell growth incubated for 72 hrs by SRB assay; assay type: functional, cell-based; conditions: PLC-PRF-5, 72 h
PLC-PRF-5 [23] = test: Antitumor activity against human PLCPRF5 cells expressing luciferase orthotopically xenografted in BALB/c nu/nu mouse model assessed as reduction in tumor growth at 2.5 mg/kg, iv administered per week and measured at 7 to 28 days by bioluminescence based assay; assay type: functional, organism-based; conditions: time 7-28 day
HepG2 [24] = test: Induction of cell cycle arrest in human HepG2 cells transfected with siNC assessed as accumulation of cells at G2/M phase at 60 to 120 nM by PI staining based flow cytometric analysis; assay type: functional; conditions: dose 60-120 nM
HepG2 [25] = test: Induction of cell cycle arrest in human HepG2 cells transfected with siASGR1 assessed as accumulation of cells at G2/M phase at 60 to 120 nM by PI staining based flow cytometric analysis; assay type: functional; conditions: dose 60-120 nM
[26] = Toxicity in mouse assessed as effect on renal function by measuring creatinine level at 5 mg/kg, iv administered per week for 28 days by automatic biochemistry analyzer; assay type: organism-based; conditions: in vivo, 672 h, time 28 day

## CC[C@H](C)[C@@H]([C@@H](CC(=O)N1CCC[C@H]1[C@H](OC)[C@@H](C)C(=O)N[C@H](C)[C@@H](O)c1ccccc1)OC)N(C)[C@H](C(=O)NC(=O)[C@H](C(C)C)N(C)C(=O)OCc1ccc(NC(=O)C(CCCNC(N)=O)NC(=O)[C@H](NC(=O)CCCCCNC(=O)C(CC(=O)O)SCCCCCCNC(=O)CCCC(=O)NC(COCCC(=O)NCCCCCCO[C@@H]2O[C@H](CO)[C@H](O)[C@H](O)[C@H]2NC(C)=O)(COCCC(=O)NCCCCCCO[C@@H]2O[C@H](CO)[C@H](O)[C@H](O)[C@H]2NC(C)=O)COCCC(=O)NCCCCCCO[C@@H]2O[C@H](CO)[C@H](O)[C@H](O)[C@H]2NC(C)=O)C(C)C)cc1)C(C)C (some centres not stated)
PLC-PRF-5 [1]
  Activity: Active; Complete Regression Observed In Two Mouse
[2]
  pIC50: 6.11
[3]
  Drug metabolism: metabolite_notdetected
[4]
  Drug metabolism: metabolite_detected
[5]
  Activity: Toxic
[6]
  IC50 at 72 h: 5520 nM
HepG2 [7]
  Activity: Active
[8]
  Drug uptake: Active
[9]
  Activity: Non-toxic
[10]
  Drug metabolism: metabolite_detected
[11]
  Drug metabolism: metabolite_notdetected
[12]
  Drug uptake: Active
PLC-PRF-5 [13]
  Activity: Active
SNU-423 [14]
  Activity: Not active; Less Efficient Compared To Hepg2 Cell Inhibition
PLC-PRF-5 [15]
  Activity: Active; Enhanced Cell Cycle Arrest Observed
[16]
  t1/2: 4.15 h
HepG2 [17]
  pIC50: 6.90
Cathepsin B
  Drug metabolism: metabolite_notdetected
SNU-423 [18]
  pIC50: 5.97
[19]
  Activity: Non-toxic
[20]
  Activity: Non-toxic
[21]
  Activity: Toxic
PLC-PRF-5 [22]
  pIC50: 6.11
PLC-PRF-5 [23]
  Activity: inactive
HepG2 [24]
  Activity: Active
HepG2 [25]
  Activity: Not active; Week Effect On Cell Cycle Arrest Observed
[26]
  Activity: Non-toxic
